Laboratory results reported in paper PMC5513444, “The synthesis and evaluation of triazolopyrimidines as anti-tubercular agents” (Bioorganic & Medicinal Chemistry, 2017).
Converted amounts (≈) assume the structure as drawn. “And” between values parts separate entries of the source, which are not always exact repeats. Equal entries are not always repeated.

Assays:
M. tuberculosis H37Rv [1] = assay: MIC99 on solid medium, M. tuberculosis; assay type: cell-based, Mycobacterium tuberculosis; conditions: solid medium 7H10-OADC, 4 weeks, lowest concentration yielding less than 1% growth
[2] = system: Mycobacterium smegmatis mc^2155; assay: MIC99 on solid medium, M. smegmatis; assay type: cell-based; conditions: Mycolicibacterium smegmatis, 3–4 days
[3] = Turnover by mouse liver microsomes; assay type: in vitro ADME
Protocol: (§1) Based on in silico ADME predictions, three compounds were chosen to cover a range of cLogP values and were evaluated for their in vitro microsomal stability (Table 7). Rapid metabolism of compound 44 was observed, in rodent and human liver microsomes. The para-OCF3 analog 48 was also rapidly metabolized. The amide (49) had improved in vitro microsomal stability, with only 12% loss after 30 min in mouse microsomes, 22% loss in rat microsomes and 31% loss in human microsomes. The difference in stability for these three compounds is probably due to presence of more than one oxidatively-labile carbon in 44 and 48 (both have a two carbon linker), while 49 has only one such soft spot, although these have not been confirmed with metabolite identification studies.

[4] = Fraction unbound in mouse plasma; assay type: in vitro ADME; conditions: read-out: Mouse Fu,pl (fraction unbound in plasma)
Source text: Table 7 In vitro ADME and in vivo PK. | column: Mouse Fu,pl ^a

[5] = system: Bacillus subtilis Marburg; assay: MIC99 on solid medium, B. subtilis; assay type: cell-based; conditions: nutrient agar, 28 °C, 3–4 days
Escherichia coli DH5α = assay: MIC99 on solid medium, E. coli; assay type: cell-based; conditions: 24 h, LB agar, 1 day
M. tuberculosis = assay: Kill kinetics against M. tuberculosis in liquid culture; assay type: cell-based, Mycobacterium tuberculosis; conditions: for Kill of non-replicating M. tuberculosis: non-replicating bacteria (starvation conditions, PBS-Ty), over 14–21 days; for Activity against replicating M. tuberculosis (kill kinetics): replicating bacteria in 7H9-Tw-OADC, over 21 days
[6] = system: Pseudomonas aeruginosa HER1018 (PAO1); assay: MIC99 on solid medium, P. aeruginosa; assay type: cell-based; conditions: PAO1, 24 h, tryptic soy agar, 1 day
[7] = Turnover by rat liver microsomes; assay type: in vitro ADME
Protocol: as §1

M. tuberculosis H37Rv [8] = assay: MIC90 against M. tuberculosis in liquid medium; assay type: cell-based, Mycobacterium tuberculosis; conditions: Mycobacterium tuberculosis, H37RV, 120 h; liquid medium 7H9-Tw-OADC, aerobic, 5 days; average ± SD of two independent experiments; read-out: MIC (MIC90, minimum concentration required to inhibit growth of M. tuberculosis by 90%)
[9] = Turnover by human liver microsomes; assay type: in vitro ADME
Protocol: as §1

HepG2 cells = assay: Cytotoxicity against HepG2 cell line (CellTiter-Glo); assay type: cell-based; conditions: for Selectivity index (SI) = IC50/MIC90: HepG2 IC50 / M. tuberculosis MIC90; for IC50: Homo sapiens, 48 h, HepG2, 2 days incubation, read-out: IC50 (concentration required to reduce the viability of HepG2 cells by 50%)
[10] = In vivo mouse PK after oral and intravenous administration; conditions: male mice, oral 10 mg/kg
Protocol: The oral exposure of the three compounds was evaluated in male mice by comparing exposures following oral (PO) and intravenous (IV) administration of 10 and 1 mg/kg doses of compounds, respectively (Table 7).

[11] = system: Saccharomyces cerevisiae Y187; assay: MIC99 on solid medium, S. cerevisiae; conditions: YPD agar, 3–4 days
[12] = Mycobacterium tuberculosis, H37RV, 672 h

## FC(F)(F)Oc1ccc(CCNc2cc(-c3ccccc3)nc3ncnn23)cc1 [Compound 48, 5-Phenyl-N-(4-(trifluoromethoxy)phenethyl)-[1,2,4]triazolo[1,5-a]pyrimidin-7-amine]
M. tuberculosis H37Rv [1]; [12]
  MIC99: 1.6 µM (≈ 0.639 µg/mL)
M. tuberculosis H37Rv [1]
  MIC99: < 20 µM
[2]
  MIC99: > 10 µM
[3]
  % turnover by liver microsomes in 30 min, Mouse: 52.1%
[4]
  fraction unbound: 0.007
[5]
  MIC99: > 10 µM
Escherichia coli DH5α
  MIC99: > 10 µM
M. tuberculosis
  Kill of non-replicating M. tuberculosis: 2–3 log
  Activity against replicating M. tuberculosis (kill kinetics): static activity
[6]
  MIC99: > 100 µM
[7]
  % turnover by liver microsomes in 30 min, Rat: 52.7%
M. tuberculosis H37Rv [8]
  MIC90: 3.9 ± 1.1 µM (≈ 1.56 µg/mL)
[9]
  % turnover by liver microsomes in 30 min, Human: 32.8%
HepG2 cells
  Selectivity index (SI) = IC50/MIC90: >27
  IC50: > 100 µM
[10]
  Cmax: 958 nM
  PO AUC: 2.75 µM·h
  PO Tmax: 0.75 h
  PO t1/2: 2.49 h
[11]
  MIC99 S. cerevisiae: >10 µM

## Cc1ccc(CCNc2cc(-c3ccccc3)nc3ncnn23)cc1 [Compound 44, N-(4-Methylphenethyl)-5-phenyl-[1,2,4]triazolo[1,5-a]pyrimidin-7-amine]
[3]
  % turnover by liver microsomes in 30 min, Mouse: 98.2%
[4]
  fraction unbound: 0.015
[7]
  % turnover by liver microsomes in 30 min, Rat: 99.2%
M. tuberculosis H37Rv [8]
  MIC90: 1.4 ± 0.5 µM (≈ 0.461 µg/mL)
[9]
  % turnover by liver microsomes in 30 min, Human: 68.1%
HepG2 cells
  Selectivity index (SI) = IC50/MIC90: 43
  IC50: 53 µM
[10]
  Cmax: 604 nM
  PO Tmax: 0.25 h
  PO t1/2: 1.05 h

## COc1ccc(CC(=O)Nc2cc(-c3ccccc3)nc3ncnn23)cc1 [Compound 49, 2-(4-Methoxyphenyl)-N-(5-phenyl-[1,2,4]triazolo[1,5-a]pyrimidin-7-yl)acetamide]
M. tuberculosis H37Rv [1]; [12]
  MIC99: 3.1 µM (≈ 1.11 µg/mL)
M. tuberculosis H37Rv [1]
  MIC99: < 20 µM
[2]
  MIC99: > 10 µM
[3]
  % turnover by liver microsomes in 30 min, Mouse: 12% and 12.5%
[5]
  MIC99: > 10 µM
Escherichia coli DH5α
  MIC99: > 10 µM
M. tuberculosis
  Kill of non-replicating M. tuberculosis: 2–3 log
  Activity against replicating M. tuberculosis (kill kinetics): static activity
[6]
  MIC99: > 10 µM
[7]
  % turnover by liver microsomes in 30 min, Rat: 22% and 21.8%
M. tuberculosis H37Rv [8]
  MIC90: 1.5 ± 0.7 µM (≈ 0.539 µg/mL)
[9]
  % turnover by liver microsomes in 30 min, Human: 31% and 30.6%
HepG2 cells
  Selectivity index (SI) = IC50/MIC90: >73
  IC50: > 100 µM
[10]
  Cmax: 62.8 nM
  PO AUC: 0.187 µM·h
  PO Tmax: 1.5 h
[11]
  MIC99 S. cerevisiae: >10 µM

## COc1ccc(CCNc2cc(-c3ccccn3)nc3ncnn23)cc1 [Compound 16, N-(4-Methoxyphenethyl)-5-(pyridin-2-yl)-[1,2,4]triazolo[1,5-a]pyrimidin-7-amine]
M. tuberculosis H37Rv [1]; [12]
  MIC99: 13 µM (≈ 4.5 µg/mL)
M. tuberculosis H37Rv [1]
  MIC99: < 20 µM
[2]
  MIC99: > 100 µM
[5]
  MIC99: > 100 µM
Escherichia coli DH5α
  MIC99: > 100 µM
M. tuberculosis
  Kill of non-replicating M. tuberculosis: 2–3 log
  Activity against replicating M. tuberculosis (kill kinetics): static activity
other
  melting point: 172 to 173 °C
[6]
  MIC99: > 100 µM
M. tuberculosis H37Rv [8]
  MIC90: 0.83 ± 0.26 µM (≈ 0.288 µg/mL)
HepG2 cells
  Selectivity index (SI) = IC50/MIC90: >130
  IC50: > 100 µM
[11]
  MIC99 S. cerevisiae: >100 µM
